A word on the melting point: it is the temperature of the solid-liquid transition.

For series [1], the target named is T1, Vasopressin V2 (Rattus norvegicus, UniProt Q00788). The series can be described thus: Vasopressin V2 agonist effects in normal conscious homozygous Brattleboro rats with central diabetes insipidus. The series is classed as in vivo. More on the design: from tissue; host or cells: whole living homozygous Brattleboro rat; the receptor is the animal's own. The following applies: Brattleboro (BB) rats, 10 mg/kg oral; for Osmolality (% Increase): change in osmolality as percent of control; for Urine Volume (% decrease): vs. control, urine collected six hours. From the text:
Vasopressin V2 Agonist Effects of Test Compounds in Normal Conscious Homozygous Brattleboro Rats with Central Diabetes Insipidus
Male or female homozygous Brattleboro rats (Harlan Sprague Dawley, Inc., Indianapolis, Ind.) of 250-350 g body weight were supplied with standard rodent diet (Purina Rodent Lab. Chow 5001) and water ad libitum. On the day of test, rats were placed individually into metabolic cages equipped with devices to separate the feces from the urine and containers for collection of urine. Test compound or reference agent was given at an oral dose of 1 to 10 mg/kg in a volume of 10 ml/kg. The vehicle used was 20% dimethylsulfoxide (DMSO) in 2.5% preboiled corn starch. During the test, rats were provided with water ad libitum. Urine was collected for six hours after dosing of the test compound. At the end of six hours, urine volume was measured. Urinary osmolality was determined using a Fiske One-Ten Osmometer (Fiske Associates, Norwood, Mass., 02062) or an Advanced CRYOMATIC Osmometer, Model 3C2 (Advanced Instruments, Norwood, Mass.). Determinations of Na^+, K^+ and Cl^− ion were carried out using ion specific electrodes in a Beckman SYNCHRON EL-ISE Electrolyte System analyzer. This animal model was mainly used for evaluation of potency and duration of action of the active compounds.

Series [2] addresses T1, Vasopressin V2. The series can be described thus: Vasopressin V2 agonist effects in normal conscious water-loaded rats. The series is classed as in vivo. More on the design: from tissue; host or cells: whole living Sprague-Dawley rat; the receptor is the animal's own (renal, by own knowledge). Particulars: Sprague-Dawley (CD) rats, 10 mg/kg oral; for Osmolality (% Increase): change in osmolality as percent of control; for Urine Volume (% decrease): vs. control, urine collected four hours. The procedure, abridged: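 Sprague-Dawley rats (350-500 g, either sex) dosed orally at 10 mg/kg in 20% DMSO/2.5% corn starch, then water-loaded by gavage (30 ml/kg) 30 min later. Urine was collected for 4 h post-dose without food or water. Endpoints were volume, osmolality and Na+, K+, Cl−, with two to three rats per compound.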

Values joined by “and” are separate entries in the source; they are usually repeats but may differ in a detail not shown here. Equal entries are not always repeated.

T1 sequence (Q00788 whole entry): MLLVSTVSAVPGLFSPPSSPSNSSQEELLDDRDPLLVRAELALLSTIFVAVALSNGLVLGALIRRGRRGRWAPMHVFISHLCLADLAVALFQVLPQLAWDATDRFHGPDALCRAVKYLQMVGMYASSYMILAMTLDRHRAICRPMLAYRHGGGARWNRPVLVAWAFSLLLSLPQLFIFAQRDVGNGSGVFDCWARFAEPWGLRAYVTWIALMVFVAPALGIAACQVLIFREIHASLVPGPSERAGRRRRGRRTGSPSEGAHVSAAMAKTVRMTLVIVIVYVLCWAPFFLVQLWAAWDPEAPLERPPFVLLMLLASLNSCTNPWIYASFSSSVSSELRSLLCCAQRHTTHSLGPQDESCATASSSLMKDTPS

Take `O=C(c1ccc(-c2ccn(C(=O)c3cccs3)n2)cc1)N1Cc2cccn2Cc2ccccc21` [Example 34, (5H,11-Pyrrolo[2,1-c][1,4]benzodiazepin-10-yl)-{4-[1-(thiophene-2-carbonyl)-1H-pyrazoly-3-yl]phenyl}-methanone]: in series [1], the “Osmolality (% Increase)” value was 407% and the “Urine Volume (% decrease)” value was 76%.

On to `Cn1ncnc1-c1ccc(C(=O)N2Cc3cccn3Cc3ccccc32)cc1` [Example 49, [4-(2-Methyl-2H-[1,2,4]triazol-3-yl)-phenyl]-(5H,11H-pyrrolo[2,1-c][1,4]-benzodiazepin-10-yl)-methanone], for which the melting point lay in the range of 155 to 158 °C. In addition, in series [1], the “Osmolality (% Increase)” value stood at 221% and the “Urine Volume (% decrease)” value is on record as 74%.

The molecule `O=C(c1ccc(-c2ccn(C(=O)c3ccc(Cl)cc3Cl)n2)cc1)N1Cc2cccn2Cc2ccccc21` [Example 38, {4-[1-(2,4-Dichloro-benzoyl)-1H-pyrazol-3-yl]-phenyl}-(5H,11H-pyrrolo[2,1-c][1,4]benzodiazepin-10-yl)-methanone] had a melting point of 180 to 182 °C. In addition, in series [1], the “Osmolality (% Increase)” value is recorded as 256% and the “Urine Volume (% decrease)” value was found to be 66%.

As to `CC(=O)n1ccc(-c2ccc(C(=O)N3Cc4cccn4Cc4ccccc43)cc2)n1` [Example 30, 1-{3-[4-(5H,11H-Pyrrolo[2,1-c][1,4]benzodiazepine-10-carbonyl)-phenyl]-pyrazol-1-yl}-ethanone], in series [1], the “Osmolality (% Increase)” value is given as 334% and the “Urine Volume (% decrease)” value stood at 81%.

The molecule `Cc1ccccc1C(=O)n1ccc(-c2ccc(C(=O)N3Cc4cccn4Cc4ccccc43)cc2)n1` [Example 36, {4-[1-(2-Methyl-benzoyl)-1H-pyrazol-3-yl]-phenyl}-(5H,11H-pyrrolo[2,1-c][1,4]benzodiazepin-10-yl)-methanone] returned a melting point of 170 to 173 °C. Besides, in series [1], the “Osmolality (% Increase)” value was found to be 164% and the “Urine Volume (% decrease)” value was found to be 66%.

As for `Cc1ccn(-c2ccc(C(=O)N3Cc4cccn4Cc4ccccc43)c(Cl)c2)n1` (single isomer, unassigned) [Example 9A], the melting point is 137 to 138 °C and 141 to 143 °C. Moreover, in series [2], the “Osmolality (% Increase)” value stood at 325% and the “Urine Volume (% decrease)” value is 70%.

`Cc1cnn(-c2ccc(C(=O)N3Cc4cccn4Cc4ccccc43)c(Cl)n2)c1` [Example 101, [2-Chloro-6-(4-methylpyrazol-1-yl)-pyridin-3-yl](5H,11H-pyrrolo[2,1-c][1,4]benzodiazepin-10-yl)-methanone] showed a melting point of 155 to 156 °C. Moreover, in series [2], the “Osmolality (% Increase)” value was found to be 376% and the “Urine Volume (% decrease)” value is reported as 76%.

In the case of `O=C(c1ccc(-n2ccc(C(F)(F)F)n2)cc1)N1Cc2cccn2Cc2ccccc21` [Example 62, (5H,11H-Pyrrolo[2,1-c][1,4]benzodiazepin-10-yl)-[4-(3-trifluoromethyl-pyrazol-1-yl)-phenyl]-methanone], the melting point lay within 166 to 167 °C. Further, in series [2], the “Osmolality (% Increase)” value is on record as 150% and the “Urine Volume (% decrease)” value is listed as 22%.

(Values after patent publication US6831079B1, “Vasopressin agonist formulation and process” (American Cyanamid Company, priority 1999, dated 2004).)
